Data reported in patent US7288273B1, “Gallotannins and ellagitannins as regulators of cytokine release” (The Penn State Research Foundation, priority 2000, dated 2007).

Tested on: IL-1β secretion from h-PBMC's
Assay: IL-1β release from h-PBMC's, ELISA
Assay type: cell-based, human
Conditions: for IL-1β secreted in the presence of 17c-20c: h-PBMC's 2nd subject, ± SD
Protocol: Authentic samples of agrimoniin and coriariin A were supplied by Professor Yoshida (Okayama University, Japan). Dimeric gallotannin (analog of coriariin A) and β-D-PGG were synthesized as described. LPS (E. coli 055:B5 phenol extract, MW range 50-100 KD). Ficoll-Histopaque (ρ=1.077 g/mL), Fetal Bovine Serum, sterile, hybridoma tested (FCS), gentamicin 10 mg/mL. L-glutamine, 200 mM. Dextran B-512 Leuconostoc Av M.W. 580000, and Trypan Blue stain were purchased from Sigma. Hanks Buffer Saline Solution 1×, with phenol red, mediatech (HBSS) and RPMI 1640 1×, mediatech were purchased from Fisher Scientific, Human IL-1β and TNF-α Enzyme Linked ImmunoSorbent Assay (ELISA) kits were purchased from R and D Systems, Minneapolis, Minn. Fresh heparinized blood was obtained from health human subjects (ages 20-34).
Dose-Response Data: General Procedure. H-PBMC's were isolated by reported procedures (10. 18). The cells counted and the viability was determined by Trypan Blue exclusion (typically, viability exceeded 95%). The concentration of the cells in the 0.5 mL wells was adjusted to 1×10^6 cells/well by diluting with the required amount of RPMI.
The appropriate amount of a tannin (or LPS) stock solution in HBSS was added to each well to furnish the concentration values reported in the Figures. […] The culture plates were incubated in a 5% CO2, 37° C. humidified incubator for the indicated time. At the end of the time interval, 450 μL of the culture supernatant from each well was harvested, after centrifugation at 400 g, 25° C., 10 min. with brake, and stored at −78° C. pending ELISA analysis for the cytokine(s). The ELISA assays were conducted per the manufacturer's instructions using standard calibration curves to calculate cytokine concentration from observed absorbance readings. The cytokine values reported are averages of three runs±SE.
The dimeric antitumor ellagitannins coriariin A and agrimoniin, the monomeric gallotannin β-D-pentagalloylglucose (β-D-PGG) and the dimeric gallotannin of this invention were all examined in this study. The dimeric gallotannin is an analog of coriariin A and is identical to the parent ellagitannin except that the galloyl rings at O(4) and O(6) are not joined in a hexahydroxydiphenoyl (HHDP) linkage. h-PBMC's were incubated with the compound under investigation for the indicated length of time and the amounts of both IL-1β and, independently, TNF-α, present in the culture supernatants was determined using commercially available ELISA kits. In each case, LPS was used as a positive control while untreated cells were reserved as negative controls.
In the third study, compounds 17c-20c were examined for their ability to induce secretion of IL-1β from h-PBMC's (FIG. 16). Recall from the introduction that the cytokine IL-1β is also released in an LPS-stimulated septic shock response. The compounds that cause very little secretion of IL-1β or none at all will be the optimal compounds for potential septic shock therapeutics because they will be less likely themselves to induce a septic shock response.

| Compound | IL-1β secreted in the presence of 17c-20c (compound 0.6 μM) | IL-1β secreted in the presence of 17c-20c (compound 2.9 μM) | IL-1β secreted in the presence of 17c-20c (compound 5.9 μM) | IL-1β secreted in the presence of 17c-20c (compound 11.8 μM) | IL-1β secreted in the presence of 17c-20c (compound 17.6 μM) | IL-1β secreted in the presence of 17c-20c (compound 23.5 μM) | IL-1β secreted in the presence of 17c-20c (compound 29.4 μM) | IL-1β secretion from h-PBMC's, in words | IL-1β secreted in the presence of 17c-20c (compound 2.8 μM) | IL-1β secreted in the presence of 17c-20c (compound 5.6 μM) | IL-1β secreted in the presence of 17c-20c (compound 11.2 μM) | IL-1β secreted in the presence of 17c-20c (compound 16.8 μM) | IL-1β secreted in the presence of 17c-20c (compound 22.5 μM) | IL-1β secreted in the presence of 17c-20c (compound 28.1 μM) |
| --- | --- | --- | --- | --- | --- | --- | --- | --- | --- | --- | --- | --- | --- | --- |
| O=C(CCCCCC(=O)OC1O[C@H](COC(=O)c2cc(O)c(O)c(O)c2)[C@@H](OC(=O)c2cc(O)c(O)c(O)c2)[C@H](OC(=O)c2cc(O)c(O)c(O)c2)[C@H]1OC(=O)c1cc(O)c(O)c(O)c1)OC1O[C@H](COC(=O)c2cc(O)c(O)c(O)c2)[C@@H](OC(=O)c2cc(O)c(O)c(O)c2)[C@H](OC(=O)c2cc(O)c(O)c(O)c2)[C@H]1OC(=O)c1cc(O)c(O)c(O)c1 (mixture of isomers) [Compound 20c, 1,1′-O-2,2′,3,3′,4,4′,6,6′-Tetrakis(3,4,5-trihyroxybenzoyl)-β,β′-D,D′-glucopyranosylpimelate] | 0 pg/mL | 0 pg/mL | 0 pg/mL | 184.1 pg/mL | 230.0 pg/mL | 0 pg/mL | 204.2 pg/mL | lowest amounts of IL-1β production | – | – | – | – | – | – |
| O=C(OC[C@H]1O[C@@H](OC(=O)c2cccc(C(=O)O[C@@H]3O[C@H](COC(=O)c4cc(O)c(O)c(O)c4)[C@@H](OC(=O)c4cc(O)c(O)c(O)c4)[C@H](OC(=O)c4cc(O)c(O)c(O)c4)[C@H]3OC(=O)c3cc(O)c(O)c(O)c3)c2)[C@H](OC(=O)c2cc(O)c(O)c(O)c2)[C@@H](OC(=O)c2cc(O)c(O)c(O)c2)[C@@H]1OC(=O)c1cc(O)c(O)c(O)c1)c1cc(O)c(O)c(O)c1 [Compound 18c, 1,1′-O-2,2′,3,3′,4,4′,6,6′-Tetrakis(3,4,5-trihydroxybenzoyl)-β,β′-D-glucopyranosylisophthalate] | 0 pg/mL | 4.7 ± 8.1 pg/mL | 3.2 ± 5.5 pg/mL | 34.1 ± 48.2 pg/mL | 1266.0 ± 78.3 pg/mL | 631.2 ± 94.4 pg/mL | 2113.4 ± 393.0 pg/mL | – | – | – | – | – | – | – |
| O=C(OC[C@H]1O[C@@H](OC(=O)c2ccc(-c3ccc(C(=O)O[C@@H]4O[C@H](COC(=O)c5cc(O)c(O)c(O)c5)[C@@H](OC(=O)c5cc(O)c(O)c(O)c5)[C@H](OC(=O)c5cc(O)c(O)c(O)c5)[C@H]4OC(=O)c4cc(O)c(O)c(O)c4)cc3)cc2)[C@H](OC(=O)c2cc(O)c(O)c(O)c2)[C@@H](OC(=O)c2cc(O)c(O)c(O)c2)[C@@H]1OC(=O)c1cc(O)c(O)c(O)c1)c1cc(O)c(O)c(O)c1 [Compound 19c, 1,1′-O-2.2′,3,3′,4,4′,6,6′-Tetrakis(3,4,5-trihyroxybenzoyl)-β,β′-D,D′-glucopyranosylbiphenyl-4.4′-diester] | 54.2 ± 57.5 pg/mL | – | – | – | – | – | – | lowest amounts of IL-1β production | 60.9 ± 58.6 pg/mL | 14.5 ± 25.2 pg/mL | 9.4 ± 7.0 pg/mL | 41.3 ± 14.8 pg/mL | 23.2 ± 18.0 pg/mL | 41.3 ± 6.0 pg/mL |
